# According to patent US9868720B2 (Genentech, Inc., priority 2013, dated 2018):
# Molecular target: DLK kinase (N-terminally GST-tagged DLK, catalytic domain amino acid 1-520) (Homo sapiens (Human), UniProt Q12852)
# Assay: DLK TR-FRET assay
# Type: biochemical
# Conditions: 30 μM ATP, MKK4 K131M substrate, read-out: DLK HTRF (Ki)
# Method: DLK TR-FRET assay: DLK kinase reactions (20 μL) containing 5 nM N-terminally GST-tagged DLK (catalytic domain amino acid 1-520) (Carna Bioscience), 40 nM N-terminally HIS-tagged MKK4 K131M substrate, and 30 μM ATP in kinase reaction buffer (50 mM HEPES, pH 7.5, 0.01% Triton X-100, 0.01% Bovine γ-Globulins, 2 mM DTT, 10 mM MgCl2 and 1 mM EGTA), and testing compound 1:3 serial diluted starting at 20 uM were incubated at ambient temperature for 60 minutes in 384 well OptiPlate (Perkin Elmer). To quench kinase reactions and detect phosphorylated MKK4, 15 μL of TR-FRET antibody mixture containing 2 nM anti-phosphorylated MKK4 labeled with Europium cryptate (Cisbio) and 23 nM anti-HIS labeled with D2 (Cisbio) in detection buffer (25 mM Tris pH 7.5, 100 mM NaCl, 100 mM EDTA, 0.01% Tween-20, and 200 mM KF) was added to the reaction mixture. The detection mixture was incubated for 3 hours at ambient temperature and the TR-FRET was detected with an EnVision multilabel plate reader (Perkin-Elmer) using the LANCE/DELFIA Dual Enh label from Perkin-Elmer (excitation filter: UV2 (TRF) 320 and emission filters: APC 665 and Europium 615).
# DLK kinase (N-terminally GST-tagged DLK, catalytic domain amino acid 1-520), sequence (Q12852 1-520): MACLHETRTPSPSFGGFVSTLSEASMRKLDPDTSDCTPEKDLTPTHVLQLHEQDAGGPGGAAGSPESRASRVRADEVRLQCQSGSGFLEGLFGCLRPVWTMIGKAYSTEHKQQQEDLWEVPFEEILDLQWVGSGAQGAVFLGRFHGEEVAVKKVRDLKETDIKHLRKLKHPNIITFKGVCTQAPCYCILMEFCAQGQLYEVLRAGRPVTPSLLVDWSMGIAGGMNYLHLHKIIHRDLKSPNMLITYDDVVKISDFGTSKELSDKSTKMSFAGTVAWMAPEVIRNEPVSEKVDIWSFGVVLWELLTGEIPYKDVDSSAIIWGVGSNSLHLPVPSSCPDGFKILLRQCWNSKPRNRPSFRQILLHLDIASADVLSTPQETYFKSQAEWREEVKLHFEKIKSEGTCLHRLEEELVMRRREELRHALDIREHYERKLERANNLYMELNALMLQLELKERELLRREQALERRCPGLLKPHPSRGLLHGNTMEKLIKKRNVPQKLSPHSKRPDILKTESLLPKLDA
row,Structure (SMILES),Ki [nM]
1,CC1CC1C(=O)N1CCC(c2cc(Nc3cc(C(F)(F)F)ccn3)nc(N3CCC(F)(F)C3)n2)C1 (stereo not drawn) [Example 180],46.2
2,"O=C(C1CC1)N1CCC(c2cc(Nc3cc(C(F)(F)F)ccn3)nc(N3CCC(F)(F)C3)n2)C1 (stereo not drawn) [Example 184, Cyclopropyl-{3-[2-(3,3-difluoro-pyrrolidin-1-yl)-6-(4-trifluoromethyl-pyridin-2-ylamino)-pyrimidin-4-yl}-pyrrolidin-1-yl}-methanone]",41.5
3,"CC(C)Cc1nc(Nc2cc(C(F)(F)F)ccn2)cc(C2CCCN(C(=O)C(F)F)C2)n1 (stereo not drawn) [Example 195, 2,2-Difluoro-1-{3-[2-isobutyl-6-(4-trifluoromethyl-pyridin-2-ylamino)-pyrimidin-4-yl]-piperidin-1-yl}-ethanone]",143
4,"CC(=O)N1CCC(c2cc(Nc3cc(C(F)(F)F)ccn3)nc(N3CCC(C(F)(F)F)C3)n2)CC1 (stereo not drawn) [Example 206, 1-{4-[6-(4-Trifluoromethyl-pyridin-2-ylamino)-2-(3-trifluoromethyl-pyrrolidin-1-yl)-pyrimidin-4-yl]-piperidin-1-yl}-ethanone]",43.3
5,"N#CC1(c2cc(Nc3cc(C(F)(F)F)ccn3)nc(Nc3cc(C(F)(F)F)ccn3)n2)CCOCC1 [Example 208, 4-[2,6-Bis-(4-trifluoro-methyl-pyridin-2-ylamino)-pyrimidin-4-yl]-tetrahydro-pyran-4-carbonitrile]",322
6,"C[C@@H]1CCCN1c1nc(Nc2cc(C(F)(F)F)ccn2)cc(C2(C#N)CCOCC2)n1 [Example 209, 4-[2-((R)-2-Methyl-pyrrolidin-1-yl)-6-(4-trifluoromethyl-pyridin-2-ylamino)-pyrimidin-4-yl]-tetrahydro-pyran-4-carbonitrile]",76.8
7,"FC(F)(F)c1ccnc(Nc2cc(C3CCOCC3)nc(N3CC4(COC4)C3)n2)c1 [Example 218, [2-(2-Oxa-6-aza-spiro-[3.3]hept-6-yl)-6-(tetrahydro-pyran-4-yl)-pyrimidin-4-yl]-(4-trifluoromethyl-pyridin-2-yl)-amine]",288
8,"FC(F)(F)c1ccnc(Nc2cc(C3CCOCC3)nc(N3C4CCC3COC4)n2)c1 [Example 251, [2-(3-Oxa-8-aza-bicyclo-[3.2.1]oct-8-yl)-6-(tetrahydro-pyran-4-yl)-pyrimidin-4-yl]-(4-trifluoro-methyl-pyridin-2-yl)-amine]",183
9,"FC(F)(F)c1ccnc(Nc2cc(C3CCOCC3)nc(N3CCc4nc[nH]c4C3)n2)c1 [Example 252, [2-(3,4,6,7-Tetrahydro-imidazo[4,5-c]pyridin-5-yl)-6-(tetrahydro-pyran-4-yl)-pyrimidin-4-yl]-(4-trifluoromethyl-pyridin-2-yl)-amine]",43.5
10,"FC(F)(F)c1ccnc(Nc2cc(C3CCOCC3)nc(N3CCn4ccnc4C3)n2)c1 [Example 253, [2-(5,6-Dihydro-8H-imidazo[1,2-a]pyrazin-7-yl)-6-(tetrahydro-pyran-4-yl)-pyrimidin-4-yl]-(4-trifluoromethyl-pyridin-2-yl)-amine]",87.7
11,"O=C(C1CN(c2nc(Nc3cc(C(F)(F)F)ccn3)cc(C3CCOCC3)n2)C1)N1CCOCC1 [Example 260, Morpholin-4-yl-{1-[4-(tetrahydro-pyran-4-yl)-6-(4-trifluoromethyl-pyridin-2-ylamino)-pyrimidin-2-yl]-azetidin-3-yl}-methanone]",347
12,"O=C(C1CCCO1)N1CCC(c2cc(Nc3cc(C(F)(F)F)ccn3)nc(N3CC(F)(F)C3)n2)C1 (stereo not drawn) [Example 265, {3-[2-(3,3-Difluoro-azetidin-1-yl)-6-(4-trifluoro-methyl-pyridin-2-ylamino)-pyrimidin-4-yl]-pyrrolidin-1-yl}-(tetrahydro-furan-2-yl)-methanone]",159
13,"CN1CCC(c2cc(Nc3cc(C(F)(F)F)ccn3)nc(N3CC4CC3CO4)n2)C1 (stereo not drawn) [Example 274, [6-(1-Methyl-pyrrolidin-3-yl)-2-(2-oxa-5-aza-bicyclo[2.2.1]hept-5-yl)-pyrimidin-4-yl]-(4-trifluoromethyl-pyridin-2-yl)-amine]",46.3
14,"O=C(C(F)F)N1CCC(c2cc(Nc3cc(C(F)(F)F)ccn3)nc(N3CC4CCC(C3)O4)n2)CC1 [Example 294, 2,2-Difluoro-1{-[2(8-oxa-3-aza-bicyclo[3.2.1]oct-3-yl)-6-(4-trifluoro-methyl-pyridin-2-ylamino)-pyrimidin-4-yl]-piperidin-1-yl}-ethanone]",104
15,"FC(F)(F)c1ccnc(Nc2cc(C3CCOCC3)nc(N3CCCOCC3)n2)c1 [Example 295, [2-[1,4]Oxazepan-4-yl-6-(tetrahydro-pyran-4-yl)-pyrimidin-4-yl]-(4-trifluoromethyl-pyridin-2-yl)-amine]",82.7
16,"FC(F)(F)c1ccnc(Nc2cc(C3CCOCC3)nc(N3CC4CCC(C3)O4)n2)c1 [Example 296, [2-(8-Oxa-3-aza-bicyclo-[3.2.1]oct-3-yl)-6-(tetra-hydro-pyran-4-yl)-pyrimidin-4-yl]-(4-trifluoro-methyl-pyridin-2-yl)-amine]",174
17,"FC1(F)CN(c2nc(Nc3cc(C(F)(F)F)ccn3)cc(C3CCN(CC4CCOCC4)C3)n2)C1 (stereo not drawn) [Example 307, {2-(3,3-Difluoro-azetidin-1-yl)-6-[1-(tetrahydro-pyran-4-ylmethyl)-pyrrolidin-3-yl]-pyrimidin-4-yl}-(4-trifluoromethyl-pyridin-2-yl)-amine]",31.9
18,"CN1CCC(c2cc(Nc3cc(C(F)(F)F)ccn3)nc(N3CC(C#N)C3)n2)C1 (stereo not drawn) [Example 328, 1-[4-(1-Methyl-pyrrolidin-3-yl)-6-(4-trifluoromethyl-pyridin-2-ylamino)-pyrimidin-2-yl]-azetidine-3-carbonitrile]",147
19,"CN1CCCC(c2cc(Nc3cc(C(F)(F)F)ccn3)nc(N3CC4CCC(C3)O4)n2)C1 (stereo not drawn) [Example 329, [6-(1-Methyl-piperidin-3-yl)-2-(8-oxa-3-aza-bicyclo[3.2.1]oct-3-yl)-pyrimidin-4-yl]-(4-trifluoro-methyl-pyridin-2-yl)-amine]",70.1
20,"C[C@@H]1CCCN1c1nc(Nc2cc(C(F)(F)F)ccn2)cc(C2CCN(S(C)(=O)=O)CC2)n1 [Example 330, [6-(1-Methanesulfonyl-piperidin-4-yl)-2-((R)-2-methyl-pyrrolidin-1-yl)-pyrimidin-4-yl]-(4-trifluoromethyl-pyridin-2-yl)-amine]",31.8

# Stronger by Ki, values ahead:
row,Ki [nM],Structure (SMILES)
1,26.8,"O=C(C(F)F)N1CCCC(c2cc(Nc3cc(C(F)(F)F)ccn3)nc(N3CCC(F)(F)C3)n2)C1 (stereo not drawn) [Example 178, 1-{3-[2-(3,3-Difluoro-pyrrolidin-1-yl)-6-(4-trifluoromethyl-pyridin-2-ylamino)-pyrimidin-4-yl]-piperidin-1-yl}-2,2-difluoro-ethanone]"
2,26.7,"CC(=O)N1CCC(c2cc(Nc3cc(C(F)(F)F)ccn3)nc(N3CC(F)C(F)C3)n2)CC1 (stereo not drawn) [Example 250, 1-{4-[2-(3,4-Difluoro-pyrrolidin-1-yl)-6-(4-trifluoromethyl-pyridin-2-ylamino)-pyrimidin-4-yl]-piperidin-1-yl}-ethanone]"
3,22.6,"CCC1CN(c2nc(Nc3cc(C(F)(F)F)ccn3)cc(C3CCN(C)C3)n2)CCO1 (stereo not drawn) [Example 348, [2-(2-Ethyl-morpholin-4-yl)-6-(1-methyl-pyrrolidin-3-yl)-pyrimidin-4-yl]-(4-trifluoromethyl-pyridin-2-yl)-amine]"
4,18.4,"C[C@@H]1CCCN1c1nc(Nc2cc(C(F)(F)F)ccn2)cc(-c2ccc(=O)n(C)c2)n1 [Example 331, 1-Methyl-5-[2-((R)-2-methyl-pyrrolidin-1-yl)-6-(4-trifluoromethyl-pyridin-2-ylamino)-pyrimidin-4-yl]-1H-pyridin-2-one]"
5,8.34,"CC(C)(C)c1ccnc(Nc2cc(C3CCNCC3)nc(N3CCC(F)(F)C3)n2)c1 [Example 200, (4-tert-Butyl-pyridin-2-yl)-[2-(3,3-difluoro-pyrrolidin-1-yl)-6-piperidin-4-yl-pyrimidin-4-yl]-amine]"
6,8.03,"CC1CCCN1c1nc(Nc2cc(C(F)(F)F)ccn2)cc(C2CCN(C(=O)CC#N)CC2)n1 (stereo not drawn) [Example 177, 3-{4-[2-(2-Methyl-pyrrolidin-1-yl)-6-(4-trifluoromethyl-pyridin-2-ylamino)-pyrimidin-4-3yl]-piperidin-1-yl}-3-oxo-propionitrile]"
7,7.69,"CC1CCCN1c1nc(Nc2cc(C(F)(F)F)ccn2)cc(C2CCN(C(=O)Cn3ccnc3)C2)n1 (stereo not drawn) [Example 204, 2-Imidazol-1-yl-1-{3-[2-(2-methyl-pyrrolidin-1-yl)-6-(4-trifluoromethyl-pyridin-2-ylamino)-pyrimidin-4-yl]-pyrrolidin-1-yl}-ethanone]"
8,6.12,"CC1CCCN1c1nc(Nc2cc(C(F)(F)F)ccn2)cc(C2CCN(C)C(=O)C2)n1 (stereo not drawn) [Example 332, 1-Methyl-4-[2-(2-methyl-pyrrolidin-1-yl)-6-(4-trifluoromethyl-pyridin-2-ylamino)-pyrimidin-4-yl]-piperidin-2-one]"
9,3.2,"FC1(F)CCN(c2nc(Nc3cc(-c4cccs4)ccn3)cc(C3CCNCC3)n2)C1 [Example 201, [2-(3,3-Difluoro-pyrrolidin-1-yl)-6-piperidin-4-yl-pyrimidin-4-yl]-(4-thiophen-2-yl-pyridin-2-yl)-amine]"
10,0.95,"C[C@@H]1CCCN1c1nc(Nc2cc(C3CC3)ccn2)cc(C2CCNCC2)n1 [Example 202, (4-Cyclopropyl-pyridin-2-yl)-[2-((R)-2-methyl-pyrrolidin-1-yl)-6-piperidin-4-yl-pyrimidin-4-yl]-amine]"
